Reference: PubChem BioAssay AID248 (DTP/NCI, 2004)
Several values for one entry are separate records, joined by “and”; a condition that tells them apart may be missing. Equal entries are not always repeated. Toxic doses and inconclusive results are not listed. Cut-off read from the data, not from the text of the source: active = T/C of 150% or more; inactive = T/C below 125%.

Tested on: L1210 leukemia ip in BDF1 mice, survival T/C
Test: NCI In Vivo Anticancer Drug Screen. Data for tumor model L1210 Leukemia (intraperitoneal) in B6D2F1 (BDF1) mice
Details: endpoint: mean survival time, higher = longer survival
In short: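 Ratio derived from survival: compound-dosed mice over vehicle-dosed mice, all bearing a transplantable tumor.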

[1] = dose: 100.0 mg/kg/injection, schedule: Q01DX009 (ip), vehicle: saline with Tween-80
[2] = dose: 100.0 mg/kg/injection, schedule: Q04DX003 (ip), vehicle: saline with Tween-80
[3] = dose: 200.0 mg/kg/injection, schedule: Q04DX003 (ip), vehicle: saline with Tween-80
[4] = dose: 400.0 mg/kg/injection, schedule: Q04DX003 (ip), vehicle: saline with Tween-80
[5] = dose: 25.0 mg/kg/injection, schedule: Q01DX009 (ip), vehicle: saline with Tween-80
[6] = dose: 50.0 mg/kg/injection, schedule: Q01DX009 (ip), vehicle: saline with Tween-80

Measured: T/C

CCOC(=O)c1ccc(C(=O)OCC)nc1
inactive: dose: 12.5 mg/kg/injection, schedule: Q01DX009 (ip), vehicle: saline 109 % of control | dose: 25.0 mg/kg/injection, schedule: Q01DX009 (ip), vehicle: saline 94 % of control | dose: 50.0 mg/kg/injection, schedule: Q01DX009 (ip), vehicle: saline 101 % of control | [1] 87 % of control | [2] 101 % of control | [3] 106 % of control | [4] 103 % of control

COc1cccc2c(Cl)c(CCl)c(C)nc12
inactive: dose: 12.5 mg/kg/injection, schedule: Q01DX009 (ip), vehicle: saline with Tween-80 97 % of control | [5] 97 % of control | dose: 25.0 mg/kg/injection, schedule: Q04DX003 (ip), vehicle: saline with Tween-80 92 % of control | [6] 92 % of control | dose: 50.0 mg/kg/injection, schedule: Q04DX003 (ip), vehicle: saline with Tween-80 97 % of control | [2] 94 % of control and 96 % of control

COc1ccc(/C=C/C2=CC(=O)CC(c3ccc(OC)c(OC)c3)C2)cc1OC (configuration not stated)
inactive: dose: 100.0 mg/kg/injection, schedule: Q04DX002 (ip), vehicle: saline with Tween-80 102 % of control | dose: 200.0 mg/kg/injection, schedule: Q04DX002 (ip), vehicle: saline with Tween-80 102 % of control | dose: 400.0 mg/kg/injection, schedule: Q04DX002 (ip), vehicle: saline with Tween-80 105 % of control

OC(Cc1ccc2ccccc2n1)C(Cl)(Cl)Cl (configuration not stated)
inactive: [5] 103 % of control | [6] 91 % of control | dose: 100.0 mg/kg/injection, schedule: Q01DX009 (ip), vehicle: Klucel (hydroxypropylcellulose) (HPC) 101 % of control | [1] 101 % of control | dose: 200.0 mg/kg/injection, schedule: Q01DX009 (ip), vehicle: Klucel (hydroxypropylcellulose) (HPC) 93 % of control | dose: 200.0 mg/kg/injection, schedule: Q01DX009 (ip), vehicle: saline with Tween-80 89 % of control | dose: 400.0 mg/kg/injection, schedule: Q01DX009 (ip), vehicle: Klucel (hydroxypropylcellulose) (HPC) 101 % of control | dose: 400.0 mg/kg/injection, schedule: Q01DX009 (ip), vehicle: saline with Tween-80 114 % of control

COc1cc(C(=O)NOCc2cccc(C(F)(F)F)c2)cc(OC)c1OC
inactive: [2] 98 % of control | [3] 98 % of control | [4] 101 % of control
